According to patent US20240409585A1, “MACROCYCLIC IMMUNOMODULATORS” (priority 2021, published 2024):
Bridge positions count the residues as written; N and C are the ends. Square brackets hold non-standard residues; d marks the D form. Peptide text beside a SMILES is read from it. * marks the point of attachment. Bip(4'-COOH) = N[C@@H](Cc1ccc(-c2ccc(C(=O)O)cc2)cc1)C(=O)O; Bip(4'-NHAc) = CC(=O)Nc1ccc(-c2ccc(C[C@H](N)C(=O)O)cc2)cc1; Phe(3-CF3) = N[C@@H](Cc1cccc(C(F)(F)F)c1)C(=O)O; Ala(morpholin-4-yl) = N[C@@H](CN1CCOCC1)C(=O)O; Phe(4-CONH2) = NC(=O)c1ccc(C[C@H](N)C(=O)O)cc1; Phe(4-COOH) = N[C@@H](Cc1ccc(C(=O)O)cc1)C(=O)O; Bip = N[C@@H](Cc1ccc(-c2ccccc2)cc1)C(=O)O; Phe(3-NH2) = Nc1cccc(C[C@H](N)C(=O)O)c1; Phe(3-Me) = Cc1cccc(C[C@H](N)C(=O)O)c1; Abu(3S-NH2) = C[C@H](N)[C@H](N)C(=O)O; Val(3-OH) = CC(C)(O)[C@H](N)C(=O)O; hArg = N=C(N)NCCCC[C@H](N)C(=O)O; hCha = N[C@@H](CCC1CCCCC1)C(=O)O; hPhe = N[C@@H](CCc1ccccc1)C(=O)O; Cha = N[C@@H](CC1CCCCC1)C(=O)O; Carboxymethyl = O=C(O)C*; NMeA = CN[C@@H](C)C(=O)O; Orn = NCCC[C@H](N)C(=O)O; Dab = NCC[C@H](N)C(=O)O

Each compound was assayed against T1, Alexa fluor-647 labeled human PD-L1-Ig binding to Jurkat cell line over-expressing human PD-1 (Homo sapiens, UniProt Q15116) (assay: Jurkat-PD-1 Cell Binding High-Content Screening Assay (CBA): Method 3 (Alexa fluor-647 labeled PD-L1-Ig)). Conditions: Jurkat-PD-1 cells, Alexa fluor-647 labeled PD-L1-Ig 177 nM; head μM; read-out: CBA Method 3 μM.
T1 construct: expressed in transfected cells; host or cells: Jurkat
T1 sequence (Q15116 25-288): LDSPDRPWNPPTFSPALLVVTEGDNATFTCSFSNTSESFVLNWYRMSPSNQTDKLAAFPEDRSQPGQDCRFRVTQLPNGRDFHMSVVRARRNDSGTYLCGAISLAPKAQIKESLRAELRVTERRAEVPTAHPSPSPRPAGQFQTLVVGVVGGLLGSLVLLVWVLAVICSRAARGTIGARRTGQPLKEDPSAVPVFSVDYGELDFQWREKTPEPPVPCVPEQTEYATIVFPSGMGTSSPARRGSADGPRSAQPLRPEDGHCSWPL
Outline: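 Readout by high-content imaging of PFA-fixed, Hoechst-stained cells after 1 h with 177 nM (final) Alexa fluor-647 PD-L1-Ig. Compound was added first to hPD-1 Jurkat cells in RPMI plus 10% FCS for 2 h at 37 °C.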

| Compound | IC50 |
| --- | --- |
| Cc1cccc(C[C@@H]2NC(=O)[C@H](CC(=O)O)NC(=O)[C@H](Cc3ccc(OCC(=O)O)cc3)NC(=O)[C@H](C)NC(=O)CSC[C@@H](C(=O)N[C@@H](CCN)C(N)=O)NC(=O)[C@H](CCC(=O)O)NC(=O)[C@H](C(C)C)NC(=O)[C@H](CC3CCCCC3)NC(=O)[C@H](CCN)NC(=O)[C@@H](CC(C)C)NC(=O)[C@H](C)N(C)C(=O)[C@H](Cc3ccc(OCC(=O)O)cc3)NC(=O)[C@H](Cc3ccc(-c4ccccc4)cc3)NC(=O)[C@H](Cc3ccc(OCC(=O)O)cc3)NC2=O)c1 [Example 5139] ({CH2CO}-AY(Carboxymethyl)D[Phe(3-Me)]Y(Carboxymethyl)[Bip]Y(Carboxymethyl)[NMeA][dL][Dab][Cha]VEC[Dab]-NH2; thioether N-14) | 0.03 µM |
| Cc1cccc(C[C@@H]2NC(=O)[C@H](CC(=O)O)NC(=O)[C@H](Cc3ccc(OCC(=O)O)cc3)NC(=O)[C@H](CC3CCCCC3)NC(=O)CSC[C@@H](C(=O)N[C@@H](CCN)C(N)=O)NC(=O)[C@H](CCCN)NC(=O)[C@H](C(C)C)NC(=O)[C@H](Cc3cccc(N)c3)NC(=O)[C@H](CCN)NC(=O)[C@@H](CC(C)C)NC(=O)[C@H](C)N(C)C(=O)[C@H](CCC(N)=O)NC(=O)[C@H](Cc3ccc(-c4ccccc4)cc3)NC(=O)[C@H](Cc3ccc(C(=O)O)cc3)NC2=O)c1 [Example 5190] ({CH2CO}-[Cha]Y(Carboxymethyl)D[Phe(3-Me)][Phe(4-COOH)][Bip]Q[NMeA][dL][Dab][Phe(3-NH2)]V[Orn]C[Dab]-NH2; thioether N-14) | 0.02 µM |
| CC(=O)Nc1ccc(-c2ccc(C[C@@H]3NC(=O)[C@H](Cc4cccc(C)c4)NC(=O)[C@H](CC(=O)O)NC(=O)[C@H](Cc4ccc(-c5ccc(C(=O)O)cc5)cc4)NC(=O)[C@H](CN4CCOCC4)NC(=O)CSC[C@@H](C(=O)N[C@@H](CCN)C(N)=O)NC(=O)[C@H](CCC(=O)O)NC(=O)[C@H](C(C)C)NC(=O)[C@H](CC4CCCCC4)NC(=O)[C@H](CC(N)=O)NC(=O)[C@@H](CC(C)C)NC(=O)[C@H](C)N(C)C(=O)[C@H](Cc4ccc(OCC(=O)O)cc4)NC(=O)[C@H](Cc4ccc(-c5ccccc5)cc4)NC3=O)cc2)cc1 [Example 5127] ({CH2CO}-[Ala(morpholin-4-yl)][Bip(4'-COOH)]D[Phe(3-Me)][Bip(4'-NHAc)][Bip]Y(Carboxymethyl)[NMeA][dL]N[Cha]VEC[Dab]-NH2; thioether N-14) | 0.02 µM |
| CC(C)C[C@H]1NC(=O)[C@H](C)N(C)C(=O)[C@H](Cc2ccc(C(=O)O)cc2)NC(=O)[C@H](Cc2ccc(-c3ccccc3)cc2)NC(=O)[C@H](Cc2ccc(C(=O)O)cc2)NC(=O)[C@H](Cc2cccc(C(F)(F)F)c2)NC(=O)[C@H](CC(=O)N[C@@H](CC(=O)O)C(=O)O)NC(=O)[C@H](Cc2ccc(C(=O)O)cc2)NC(=O)[C@H]([C@H](C)N)NC(=O)CSC[C@@H](C(=O)N[C@@H](CCN)C(N)=O)NC(=O)[C@H](CC(N)=O)NC(=O)[C@H](C(C)C)NC(=O)[C@H](CC2CCCCC2)NC(=O)[C@H](CCN)NC1=O [Example 5102] ({CH2CO}-[Abu(3S-NH2)][Phe(4-COOH)]D(Asp)[Phe(3-CF3)][Phe(4-COOH)][Bip][Phe(4-COOH)][NMeA][dL][Dab][Cha]VNC[Dab]-NH2; thioether N-14) | 0.51 µM |
| CC(=O)Nc1ccc(-c2ccc(C[C@@H]3NC(=O)[C@H](Cc4cccc(C)c4)NC(=O)[C@H](CC(=O)O)NC(=O)[C@H](Cc4ccc(-c5ccc(C(=O)O)cc5)cc4)NC(=O)[C@H]([C@@H](C)O)NC(=O)CSC[C@@H](C(=O)N[C@@H](CCN)C(N)=O)NC(=O)[C@H](Cc4cnc[nH]4)NC(=O)[C@H](C(C)(C)O)NC(=O)[C@H](CC4CCCCC4)NC(=O)[C@H](CCN)NC(=O)[C@@H](CC(C)C)NC(=O)[C@H](C)N(C)C(=O)[C@H](Cc4ccc(OCC(=O)O)cc4)NC(=O)[C@H](Cc4ccc(-c5ccccc5)cc4)NC3=O)cc2)cc1 [Example 5132] ({CH2CO}-T[Bip(4'-COOH)]D[Phe(3-Me)][Bip(4'-NHAc)][Bip]Y(Carboxymethyl)[NMeA][dL][Dab][Cha][Val(3-OH)]HC[Dab]-NH2; thioether N-14) | 0.02 µM |

Continued, values first:

| IC50 | Compound |
| --- | --- |
| 0.18 µM | COc1ccc(C[C@@H]2NC(=O)[C@H](CN3CCOCC3)NC(=O)CSC[C@@H](C(=O)N[C@@H](CCN)C(N)=O)NC(=O)[C@H](CCCN)NC(=O)[C@H](C(C)C)NC(=O)[C@H](CC3CCCCC3)NC(=O)[C@H](CCN)NC(=O)[C@@H](CC(C)C)NC(=O)[C@H](C)N(C)C(=O)[C@H](CCC(N)=O)NC(=O)[C@H](Cc3ccc(-c4ccccc4)cc3)NC(=O)[C@H](Cc3ccc(OCC(=O)O)cc3)NC(=O)[C@H](Cc3cccc(C(F)(F)F)c3)NC(=O)[C@H](CC(=O)O)NC2=O)cc1 [Example 5263] ({CH2CO}-[Ala(morpholin-4-yl)]Y(Me)D[Phe(3-CF3)]Y(Carboxymethyl)[Bip]Q[NMeA][dL][Dab][Cha]V[Orn]C[Dab]-NH2; thioether N-14) |
| 0.38 µM | Cc1cccc(C[C@@H]2NC(=O)[C@H](CC(=O)O)NC(=O)[C@H](Cc3ccc(OCC(=O)O)cc3)NC(=O)[C@H](CC3CCCCC3)NC(=O)CSC[C@@H](C(=O)N[C@@H](CCN)C(N)=O)NC(=O)[C@H](CCCN)NC(=O)[C@H](C(C)C)NC(=O)[C@H](CCC3CCCCC3)NC(=O)[C@H](CCN)NC(=O)[C@@H](CC(C)C)NC(=O)[C@H](C)N(C)C(=O)[C@H](CCC(N)=O)NC(=O)[C@H](Cc3ccc(-c4ccccc4)cc3)NC(=O)[C@H](Cc3ccc(C(=O)O)cc3)NC2=O)c1 [Example 5193] ({CH2CO}-[Cha]Y(Carboxymethyl)D[Phe(3-Me)][Phe(4-COOH)][Bip]Q[NMeA][dL][Dab][hCha]V[Orn]C[Dab]-NH2; thioether N-14) |
| 0.01 µM | Cc1cccc(C[C@@H]2NC(=O)[C@H](CC(=O)O)NC(=O)[C@H](Cc3ccc(C(=O)O)cc3)NC(=O)[C@H](CC3CCCCC3)NC(=O)CSC[C@@H](C(=O)N[C@@H](CCN)C(N)=O)NC(=O)[C@H](CCC(=O)O)NC(=O)[C@H](C(C)C)NC(=O)[C@H](CC3CCCCC3)NC(=O)[C@H](CCN)NC(=O)[C@@H](CC(C)C)NC(=O)[C@H](C)N(C)C(=O)[C@H](Cc3ccc(C(=O)O)cc3)NC(=O)[C@H](Cc3ccc(-c4ccccc4)cc3)NC(=O)[C@H](Cc3ccc(-c4ccc(C(=O)O)cc4)cc3)NC2=O)c1 [Example 5198] ({CH2CO}-[Cha][Phe(4-COOH)]D[Phe(3-Me)][Bip(4'-COOH)][Bip][Phe(4-COOH)][NMeA][dL][Dab][Cha]VEC[Dab]-NH2; thioether N-14) |
| 0.17 µM | Cc1cccc(C[C@@H]2NC(=O)[C@H](CC(=O)O)NC(=O)[C@H](Cc3ccc(OCC(=O)O)cc3)NC(=O)[C@H](CCCCNC(=N)N)NC(=O)CSC[C@@H](C(=O)N[C@@H](CCN)C(N)=O)NC(=O)[C@H](CO)NC(=O)[C@H](C(C)(C)O)NC(=O)[C@H](CC3CCCCC3)NC(=O)[C@H](CCN)NC(=O)[C@@H](CC(C)C)NC(=O)[C@H](C)N(C)C(=O)[C@H](CCC(N)=O)NC(=O)[C@H](Cc3ccc(-c4ccccc4)cc3)NC(=O)[C@H](CCc3ccccc3)NC2=O)c1 [Example 5282] ({CH2CO}-[hArg]Y(Carboxymethyl)D[Phe(3-Me)][hPhe][Bip]Q[NMeA][dL][Dab][Cha][Val(3-OH)]SC[Dab]-NH2; thioether N-14) |

Same assay, conditions: Jurkat-PD-1 cells, Alexa fluor-647 labeled PD-L1-Ig 177 nM; nM; read-out: CBA Method 3

| IC50 | Compound |
| --- | --- |
| 0.0068 µM | Cc1cccc(C[C@@H]2NC(=O)[C@H](CC(=O)O)NC(=O)[C@H](Cc3ccc(OCC(=O)O)cc3)NC(=O)[C@H](CCCN)NC(=O)CSC[C@@H](C(=O)N[C@@H](CCN)C(N)=O)NC(=O)[C@H](CCCN)NC(=O)[C@H](C(C)C)NC(=O)[C@H](CC3CCCCC3)NC(=O)[C@H](CCN)NC(=O)[C@@H](CC(C)C)NC(=O)[C@H](C)N(C)C(=O)[C@H](CCC(N)=O)NC(=O)[C@H](Cc3ccc(-c4ccccc4)cc3)NC(=O)[C@H](Cc3ccc(C(=O)O)cc3)NC2=O)c1 [Example 5180] ({CH2CO}-[Orn]Y(Carboxymethyl)D[Phe(3-Me)][Phe(4-COOH)][Bip]Q[NMeA][dL][Dab][Cha]V[Orn]C[Dab]-NH2; thioether N-14) |
| 0.0003 µM | CC(C)C[C@H]1NC(=O)[C@H](C)N(C)C(=O)[C@H](CCC(N)=O)NC(=O)[C@H](Cc2ccc(-c3ccccc3)cc2)NC(=O)[C@H](Cc2ccc(-c3ccc(C(=O)O)cc3)cc2)NC(=O)[C@H](Cc2cccc(C(F)(F)F)c2)NC(=O)[C@H](CC(=O)O)NC(=O)[C@H](Cc2ccc(C(=O)O)cc2)NC(=O)[C@H](Cc2ccc(OCC(=O)O)cc2)NC(=O)CSC[C@@H](C(=O)N[C@@H](CCN)C(N)=O)NC(=O)[C@H](CCCN)NC(=O)[C@H](C(C)C)NC(=O)[C@H](CC2CCCCC2)NC(=O)[C@H](CCN)NC1=O [Example 5167] ({CH2CO}-Y(Carboxymethyl)[Phe(4-COOH)]D[Phe(3-CF3)][Bip(4'-COOH)][Bip]Q[NMeA][dL][Dab][Cha]V[Orn]C[Dab]-NH2; thioether N-14) |
| 0.0065 µM | CC(C)C[C@H]1NC(=O)[C@H](C)N(C)C(=O)[C@H](Cc2ccc(C(=O)O)cc2)NC(=O)[C@H](Cc2ccc(-c3ccccc3)cc2)NC(=O)[C@H](CCc2ccccc2)NC(=O)[C@H](Cc2cccc(C(F)(F)F)c2)NC(=O)[C@H](CC(=O)O)NC(=O)[C@H](Cc2ccc(C(=O)O)cc2)NC(=O)[C@H](CN2CCOCC2)NC(=O)CSC[C@@H](C(=O)N[C@@H](CCN)C(N)=O)NC(=O)[C@H](CCC(N)=O)NC(=O)[C@H](C(C)C)NC(=O)[C@H](CC2CCCCC2)NC(=O)[C@H](CCN)NC1=O [Example 5204] ({CH2CO}-[Ala(morpholin-4-yl)][Phe(4-COOH)]D[Phe(3-CF3)][hPhe][Bip][Phe(4-COOH)][NMeA][dL][Dab][Cha]VQC[Dab]-NH2; thioether N-14) |
| 0.0037 µM | CC(C)C[C@H]1NC(=O)[C@H](C)N(C)C(=O)[C@H](Cc2ccc(C(=O)O)cc2)NC(=O)[C@H](Cc2ccc(-c3ccccc3)cc2)NC(=O)[C@H](Cc2ccc(C(N)=O)cc2)NC(=O)[C@H](Cc2cccc(C(F)(F)F)c2)NC(=O)[C@H](CC(=O)O)NC(=O)[C@H](Cc2ccc(C(=O)O)cc2)NC(=O)[C@H]([C@H](C)N)NC(=O)CSC[C@@H](C(=O)N[C@@H](CCN)C(N)=O)NC(=O)[C@H](CC(N)=O)NC(=O)[C@H](C(C)C)NC(=O)[C@H](CC2CCCCC2)NC(=O)[C@H](CCN)NC1=O [Example 5101] ({CH2CO}-[Abu(3S-NH2)][Phe(4-COOH)]D[Phe(3-CF3)][Phe(4-CONH2)][Bip][Phe(4-COOH)][NMeA][dL][Dab][Cha]VNC[Dab]-NH2; thioether N-14) |
